Molecules are shown by their SMILES. Where a name gives a salt, the structure may show the parent alone.

Here are results for four compounds from patent US20250154288A1, “CYTOTOXICITY TARGETING CHIMERAS FOR C-C CHEMOKINE RECEPTOR 2-EXPRESSING CELLS” (GLAXOSMITHKLINE INTELLECTUAL PROPERTY DEVELOPMENT LIMITED, priority 2022, published 2025).

The subject of data set [1] is CCR2 expressing cells (CD11b+Ly6c+ Hi) in peripheral blood. The data set can be described thus: In Vivo Depletion Assay (flow cytometry of peripheral blood). On the set-up: species or system Human CCR2 (hCCR2) knock-in mice. The note with it: hCCR2 knock-in mice; IV 0.1 mpk compound + 10 mpk anti-cotinine antibody (mouse IgG2a Fc); peripheral blood at 48 hr. The procedure:
(§1) Human CCR2 (hCCR2) knock-in mice (057 background) were dosed intravenously with a PBS solution containing a compound of Formula (I) to measure depletion of CCR2 expressing cells in peripheral blood. Peripheral blood from IV dosed mice was also analyzed to determine PK properties of the ARM compounds of Formula (I).
Stock solution preparation: Stock solutions of compounds of Formula (I) were prepared at 20 mg/mL and 100 mg/mL in DMSO for PK/PD and dose tolerability studies respectively. Stock solutions were stored at −20° C. until further usage.
Formulations preparation: On the day of experiment, the stock solution of the compound of Formula (I) was removed from storage at −20° C. and thawed at room temperature. Anti-cotinine antibody having a heavy chain sequence of SEQ ID NO: 13 and a light chain sequence of SEQ ID NO: 14 (rabbit variable region sequence with mouse IgG2a Fc domain), if required was removed from storage at −80° C. and thawed at room temperature. Antibody vials were immediately transferred into wet ice after thawing. Compounds of Formula (I) were further diluted in DMSO as per experimental requirements.
Formulation composition: The formulation composition was Saline: DMSO: PBS. Saline was added based on the quantity required and then stock solution of the compound of Formula (I) prepared in DMSO, followed by addition of antibody in PBS. Formulations were incubated at room temperature for 30 minutes before administration to the mouse. DMSO was used at 1 to 2% (v/v) in the final formulation.
(§2) Administration to Animal: Solution formulation of antibody and compound of Formula (I) was injected (bolus injection) to the restrained mouse in the right/left lateral tail vein. Animals were dosed with 0.1 milligram per kilogram (mpk) of the compound of Formula (I) and 10 mpk of the anti-cotinine antibody.
(§3) Terminal bleeding at end of experiment (48 hr): Approximately 250 μL of blood in K2EDTA tube and approximately 250 μL of blood in SST (serum separation tube) was collected from each mouse through retro-orbital bleeding under deep isoflurane anesthesia. After bleeding, each mouse was sacrificed by cervical dislocation. The blood distribution at termination was determined as follows: • For PK: 50 μL of K2EDTA blood was transferred to another tube for PK • Flow cytometry: Remaining blood (˜200 μL) was used for flow cytometry analysis. • For serum collection: serum separator tubes (BD) were centrifuged at 4° C., 5000 rpm for 15 minutes. Approximately 100 μL serum was separated and stored at −80° C. for further usage. • Blood drug concentration: Samples collected at the various timepoints (0.25 hr, 2 hr, 24 and 48 hr) were analyzed to determine blood drug concentration.
CCR2 depletion in peripheral blood was determined by flow cytometry. Briefly, peripheral blood was collected from all animals at the end of study termination and processed. Blood samples were lysed using 1×RBC Lysis buffer and the resulting cell pellet was washed twice in FACS buffer (HBSS containing 5% FBS). Cells were subjected to Fc blocking using mouse Fc block from Biolegend (Trustain, anti-mouse CD16/32, Cat: 101319) to block non-specific binding followed by surface staining for immune markers (CD45, CD3, CD11b, Ly6C, human CCR2). Surface staining was done for 30 minutes in ice and cells were washed twice to remove unbound antibodies. Cells were stained with 7AAD to determine viability and acquired on BD FACSVerse flow cytometer. Appropriate FMO controls and single-color controls were included in the experiment for gating and compensation respectively.
Percent depletion of CD11b+Ly6c+ Hi cells and CCR2 expression for the different treatment groups was determined. The results are shown below in Table 4 and are reported as percent (%) depletion of CCR2 expressing cells.

Data set [2] in a line: Blood drug concentration analysis (LC-MS/MS) in In Vivo Depletion Assay. The note with it: human CCR2 (hCCR2) knock-in, 057 background, mouse, whole blood, hCCR2 knock-in mice, IV 0.1 mpk compound + 10 mpk anti-cotinine antibody, 48 hours post-dose, read-out: Exposure of Compound of Formula (I) 48 hours post-dose. As for the experimental part: as §1, §2
Collection of Blood for PK: Blood was collected at time points 0.25 hour, 2 hours, and […] following administration (50 μL/time point) through retro-orbital bleeding under mild isoflurane anesthesia.
as §3
Drug concentration in blood samples was determined by an LC-MS/MS-based bioanalytical method developed at Syngene. Samples were analyzed on Q-Trap, API-5500 LC-MS/MS system coupled with Exion UHPLC system from SCIEX, USA operated in multiple reaction monitoring mode employing electrospray ionization technique in positive polarity. Analyte and internal standard peaks were resolved on Synergi Polar, 75×2.0 mm, 4μ column using mobile phase 10 mM Ammonium acetate in Milli-Q water as phase A and 0.1% Formic acid in acetonitrile as Phase B. Gradient elution was performed with initial composition 95% Phase A at 0.0 min, holding it for 0.2 minutes, ramping to 5% by 1.0 minute, keeping the same for next 0.5 minutes and coming back to 95% by 1.6 minutes. The total run time was 2 minutes.
Working dilutions for calibration curve and quality control standards were prepared by serially diluting 20 mg/mL stock solution with DMSO. Spiked concentrations for calibration curve in the whole blood ranged from 1 ng/mL to 1000 ng/mL. The working solution of internal standard (Verapamil, 25 ng/mL) was prepared in acetonitrile. 10 μL of the study sample and calibration curve, quality control, and blank whole blood samples were aliquoted in 96 deep well plates for processing. 10 μL of Milli-Q water was added to all the samples and briefly vortexed to initiate complete hemolysis. 10 μL of 20 mM dithiothreitol (OTT) was added to all the samples and incubated for 30 minutes at 37° C. The addition of DTT enhanced the recovery of ARM compounds of Formula (I) from the biological matrix. 300 μL of working internal standard solution was added to all samples except total blank and wash samples, where 300 μL of acetonitrile was added. All the samples were vortex mixed for 5 minutes, followed by centrifugation at 4000 rpm for 10 minutes at 4° C. Supernatants were transferred to the loading plate and injected 3 μL to LC-MS/MS system for analysis. The results are shown below in Table 4 and are reported as compound exposure 48 hours post-dose

Consider `CO[C@@H]1COCC[C@@H]1N[C@@H]1CC[C@](CCCNC(=O)CCOCCOCCOCCOCCOCCOCCOCCOCCOCCOCCOCCOCCNC(=O)[C@H]2CC(=O)N(C)[C@@H]2c2cccnc2)(C(=O)N2CCc3ncc(C(F)(F)F)cc3C2)C1` [Example 1, (2S,3S)—N-(43-((1S,3R)-3-(((3S,4S)-3-methoxytetrahydro-2H-pyran-4-yl)amino)-1-(3-(trifluoromethyl)-5,6,7,8-tetrahydro-1,6-naphthyridine-6-carbonyl)cyclopentyl)-39-oxo-3,6,9,12,15,18,21,24,27,30,33,36-dodecaoxa-40-azatritetracontyl)-1-methyl-5-oxo-2-(pyridin-3-yl)pyrrolidine-3-carboxamide], for which the “% Depletion of CCR2 expressing cells” value in data set [1] turned out to be 91.67%. Further, the concentration at 48 h in data set [2] came to 55.7 ng/mL.
With `CO[C@@H]1COCC[C@@H]1N[C@@H]1CC[C@](CCC2CCN(C(=O)[C@H]3CC[C@H](NC(=O)CCCO[C@H]4CC[C@H](OCCNC(=O)[C@H]5CC(=O)N(C)[C@@H]5c5cccnc5)CC4)CC3)CC2)(C(=O)N2CCc3ncc(C(F)(F)F)cc3C2)C1` [Example 2, (2S,3S)—N-(2-(((1R,4S)-4-(4-(((1S,4R)-4-(4-(2-((1S,3R)-3-(((3S,4S)-3-Methoxytetrahydro-2H-pyran-4-yl)amino)-1-(3-(trifluoromethyl)-5,6,7,8-tetrahydro-1,6-naphthyridine-6-carbonyl)cyclopentyl)ethyl)piperidine-1-carbonyl)cyclohexyl)amino)-4-oxobutoxy)cyclohexyl)oxy)ethyl)-1-methyl-5-oxo-2-(pyridin-3-yl)pyrrolidine-3-carboxamide], the “% Depletion of CCR2 expressing cells” value in data set [1] worked out at 97.7%. Also, in data set [2], the concentration at 48 h was 53.2 ng/mL.
As to `CO[C@@H]1COCC[C@@H]1N[C@@H]1CC[C@](CCCNC(=O)[C@H]2CC[C@H](NC(=O)CCCO[C@H]3CC[C@H](OCCNC(=O)[C@H]4CC(=O)N(C)[C@@H]4c4cccnc4)CC3)CC2)(C(=O)N2CCc3ncc(C(F)(F)F)cc3C2)C1` [Example 3, (2S,3S)-N-(2-(((1R,4S)-4-(4-(((1S,4R)-4-((3-((1S,3R)-3-(((3S,4S)-3-Methoxytetrahydro-2H-pyran-4-yl)amino)-1-(3-(trifluoromethyl)-5,6,7,8-tetrahydro-1,6-naphthyridine-6-carbonyl)cyclopentyl)propyl)carbamoyl)cyclohexyl)amino)-4-oxobutoxy)cyclohexyl)oxy)ethyl)-1-methyl-5-oxo-2-(pyridin-3-yl)pyrrolidine-3-carboxamide], the “% Depletion of CCR2 expressing cells” value in data set [1] was 98.4%. Further, the concentration at 48 h in data set [2] was determined as 31.3 ng/mL.
The corresponding values for `CO[C@@H]1COCC[C@@H]1N[C@@H]1CC[C@](CCCNC(=O)[C@H]2CC[C@@H](NC(=O)CCCO[C@H]3CC[C@@H](OCCNC(=O)[C@H]4CC(=O)N(C)[C@@H]4c4cccnc4)CC3)CC2)(C(=O)N2CCc3ncc(C(F)(F)F)cc3C2)C1` [Example 4, (2S,3S)-N-(2-(((1S,4R)-4-(4-(((1R,4S)-4-((3-((1S,3R)-3-(((3S,4S)-3-Methoxytetrahydro-2H-pyran-4-yl)amino)-1-(3-(trifluoromethyl)-5,6,7,8-tetrahydro-1,6-naphthyridine-6-carbonyl)cyclopentyl)propyl)carbamoyl)cyclohexyl)amino)-4-oxobutoxy)cyclohexyl)oxy)ethyl)-1-methyl-5-oxo-2-(pyridin-3-yl)pyrrolidine-3-carboxamide, Formic acid salt] are 99.69% and 26.6 ng/mL.
